Read-outs that look alike come from different tables or passages of the source. Bridges are numbered along the chain shown (N, C = ends). Roman numbers before positions name the chains, in order. Where no end group is shown, it is not given here.
Experiments:
DC-SIGN = assay: Solid-phase binding to DC-SIGN; set-up: species or system human; conditions: Fig. 2b
Protocol: (§1) Solid-phase binding assays were performed with streptavidin-, protein A/G-, or Nickel-coated microtiter plates (Pierce). His-tagged or Fc-fusion recombinant receptors (R&D Systems, Minneapolis, MN) were reconstituted in PBS. Sufficient receptors were added to wells to saturate the coating. His-tagged receptors were added to each well at a 5-fold excess over the stated capacity of the Ni coating to minimize non-specific binding of the peptide. Wells were washed three times with binding buffer (25 mM Tris HCl, pH 7.4, 150 mM NaCl, 0.05% Tween-20) to remove unbound receptor and 50 μL of 2 μM biotinylated peptide in binding buffer were added and allowed to incubate for 1 h. The wells were washed four times with binding buffer and then incubated with 50 μL of 1 μg/mL streptavidin conjugated with peroxidase (Sigma-Aldrich) for 1 h. […] After several minutes to allow color development, the reaction was stopped with 50 μL 1 M H3PO4 and absorbance was measured at 450 nm. Bound streptavidin was quantitated by the specific activity of peroxidase (absorbance/ng protein conjugate/min) under the conditions of the assay.
(§2) Solid-phase binding assays were performed with recombinant human receptors. […] After extensive washing, the bound receptor was measured by peroxidase conjugated to a receptor-specific antibody. […]

Siglec-1 = assay: Solid-phase binding to Siglec-1; set-up: species or system human; conditions: Fig. 2b
Protocol: as §1, §2

[1] = system: monocytes in the peritoneal cavity of RAG^—/— mice; assay: Peritoneal monocyte response in RAG^—/— mice; type: in vivo, mouse (RAG^—/—); conditions: s.c. injection (data not shown)
Protocol: To determine whether the target(s) for svL4 is located on lymphocytes, with subsequent cross-talk signaling to achieve activation of monocytes, an experiment was performed in which svL4 was injected into RAG^—/— mice, which lack activity of rag, the recombination activation gene. The ability to perform recombination to generate antigen-specific antibodies by V(D)J recombination is required for B and T cell precursors to produce functional antigen receptors on their surface, and without a functional rag gene these cells undergo apoptosis.

[2] = system: serum cytokines/chemokines (mouse L-308 membrane array); type: in vivo; conditions: 0.1 nmole/g s.c., 4 h, three animals pooled
Protocol: At 4 h post dose, terminal blood was pooled from 3 animals per group and prepared for serum. Shown in Fig. S3 are the relative levels of cytokines/chemokines in sera in response to injections of 0.1 (orange bars) or 1.0 nmole/g (grey bars) svL4 as compared with animals injected with PBS (blue).

[3] = system: serum cytokines/chemokines (mouse L-308 membrane array); assay: Serum cytokine array, healthy Balb/c mice; type: in vivo, mouse (Balb/c)
Protocol: Ratios of treated vs. untreated samples obtained in a separate experiment with healthy Balb/c mice are shown in the right-hand column of Table 3 for comparison. The most significant increase in the serum of healthy mice treated with the peptide was in the amount of soluble HVEM (Herpes virus entry mediator, also designated TNFRSF14), which was a prominent protein in serum and increased approximately 10-fold within 4 h after treatment. In the tumor-bearing mice, the level of soluble HVEM in treated animals was similar to that in treated healthy mice, but the level in untreated animals was higher than that in healthy control mice.

brain glioma = conditions: in combination with brief radiation; ref [48]; cited from earlier work
Source text: We asked whether the collective evidence of the role of ligands of CLEC10A, such as promoting DC maturation, T cell activation, and initiation of an immune response would coalesce into an effective anti-cancer therapy. To achieve this goal, the ligand should serve as a ‘trigger’ to initiate a cascade of events that will lead to activation of the immune system. Given that natural ligands of CLEC10A that contain GalNAc bind with low affinity and are antigenic, we considered whether a multivalent peptide mimetic of GalNAc would serve this purpose. We previously described ef ...

[4] = * control value negligible or low
[5] = healthy mice, separate experiment, three animals pooled
[6] = healthy mice, separate experiment, three animals pooled, * control value negligible or low

I: VQATQSNQHTPRGGGSKK-NH2 / II: VQATQSNQHTPRGGGSK / III: VQATQSNQHTPRGGGS / IV: VQATQSNQHTPRGGGS (amide I:17-IV:C, I:18-II:C, II:17-III:C) [svL4]
binding to DC-SIGN (DC-SIGN): did not bind significantly
binding to Siglec-1 (Siglec-1): did not bind significantly
response of peritoneal monocytes vs. C57BL/6 [1]: essentially the same as that in C57BL/6 mice
ratio treated/untreated serum CCL1 [2]: 2.5
ratio treated/untreated serum IL-1α [2]: 2.7
ratio treated/untreated serum IL-12p70 [2]: 3.5
ratio treated/untreated serum IL-16 [2]: 4
ratio treated/untreated serum IL-27 [2]: 4.5
ratio treated/untreated serum IL-28 [2]: 4.3
ratio treated/untreated serum IL-31 [2]: 3.5
ratio treated/untreated serum Lymphotactin [2]: ~ 3
ratio treated/untreated serum MIP-2/CXCL2 [2]: ~ 6
ratio treated/untreated serum Pentraxin3 [2]: ~ 4
ratio treated/untreated serum SPARC [2]: ~ 5
ratio treated/untreated serum TIMP-2 [2]: 3
ratio treated/untreated serum TLR2 [2]: 4.2
ratio treated/untreated serum sHVEM [2]: ~ 2
ratio treated/untreated serum IFN-γ [2, 4]: High^*
ratio treated/untreated serum Lymphotoxin-α [2, 4]: 12.5*
ratio treated/untreated serum TNFα [2, 4]: 45*
ratio treated/untreated serum CCL1 [3, 5]: No change
ratio treated/untreated serum IFN-γ [3, 5]: No change
ratio treated/untreated serum IL-1α [3, 5]: 0.86
ratio treated/untreated serum IL-12p70 [3, 5]: No change
ratio treated/untreated serum IL-16 [3, 5]: 0.57
ratio treated/untreated serum IL-27 [3, 5]: 0.55
ratio treated/untreated serum Lymphotactin [3, 5]: 2.6
ratio treated/untreated serum Lymphotoxin-α [3, 5]: 0.74
ratio treated/untreated serum MIP-2/CXCL2 [3, 5]: No change
ratio treated/untreated serum Pentraxin3 [3, 5]: 0.21
ratio treated/untreated serum SPARC [3, 5]: No change
ratio treated/untreated serum TIMP-2 [3, 5]: 0.45
ratio treated/untreated serum TLR2 [3, 5]: 0.37
ratio treated/untreated serum TNFα [3, 5]: 0.21
ratio treated/untreated serum sHVEM [3, 5]: 10
ratio treated/untreated serum IL-28 [3, 6]: High*
ratio treated/untreated serum IL-31 [3, 6]: High*
increase of soluble HVEM in serum ([3]; within 4 h after treatment): approximately 10 fold
efficacy in murine brain glioma model (brain glioma): efficacy
